From ChEMBL document CHEMBL3871277, “Synthesis and anti-metastatic effects of pregn-17(20)-en-3-amine derivatives” (Eur J Med Chem, 2016)
Calls of active or inactive are those of the source. The calls are words filed in the database; no cut-off is given here.

Tests used:
[1] = Antimigratory activity against EGF induced chemotaxis in human MDA-MB-231 cells preincubated for 24 hrs followed by EGF addition for 3.5 hrs by light microscopy; format: functional, cell-based
[2] = Antimigratory activity in human HepG2 cells at 4.5 uM after 24 hrs by wound healing assay; format: functional
[3] = Anti-invasive activity in human HepG2 cells at 4.5 uM after 24 hrs by MTT dye based boyden chamber assay; format: functional
MDA-MB-231 [4] = test: Antimigratory activity in human MDA-MB-231 cells assessed as decrease in cell adhesion at 0.25 uM after 24 hrs by MTT assay; format: functional, cell-based
MDA-MB-231 [5] = test: Antimigratory activity in human MDA-MB-231 cells assessed as decrease in cell adhesion to fibronectin at 1 to 40 uM after 24 hrs by MTT assay; format: functional, cell-based
[6] = Effect on PKCzeta protein expression in human MDA-MB-231 cells at 0.25 to 6.75 uM by Western blot analysis; format: ADME, cell-based; details: mda-mb-231, 6.75 µM
MDA-MB-231 [7] = test: Antimigratory activity in human MDA-MB-231 cells after 24 hrs by wound healing assay; format: functional, cell-based
MDA-MB-231 [8] = test: Inhibition of PI3K-p85 in human MDA-MB-231 cells assessed as reduction in PKCzeta phosphorylation by Western blot analysis; format: cell-based
MDA-MB-231 [9] = test: Inhibition of PI3K-p85 in human MDA-MB-231 cells assessed as reduction in Akt phosphorylation by Western blot analysis; format: cell-based
[10] = Effect on integrin-beta1 protein expression in human MDA-MB-231 cells at 5 to 45 uM by Western blot analysis; format: ADME, cell-based; details: mda-mb-231, 45 µM
MDA-MB-231 [11] = test: Inhibition of PI3K-p85 phosphorylation in human MDA-MB-231 cells by Western blot analysis; format: cell-based
MDA-MB-231 [12] = test: Antiinvasive activity in human MDA-MB-231 cells after 24 hrs by transwell migration assay; format: functional, cell-based
[13] = target: Integrin beta-1 (Homo sapiens) (UniProt P05556); test: Inhibition of integrin-beta1 phosphorylation in human MDA-MB-231 cells by Western blot analysis; format: cell-based
[14] = Homo sapiens, MDA-MB-231, read-out: IC50

Chain of Integrin beta-1 (Homo sapiens) (P05556 whole entry): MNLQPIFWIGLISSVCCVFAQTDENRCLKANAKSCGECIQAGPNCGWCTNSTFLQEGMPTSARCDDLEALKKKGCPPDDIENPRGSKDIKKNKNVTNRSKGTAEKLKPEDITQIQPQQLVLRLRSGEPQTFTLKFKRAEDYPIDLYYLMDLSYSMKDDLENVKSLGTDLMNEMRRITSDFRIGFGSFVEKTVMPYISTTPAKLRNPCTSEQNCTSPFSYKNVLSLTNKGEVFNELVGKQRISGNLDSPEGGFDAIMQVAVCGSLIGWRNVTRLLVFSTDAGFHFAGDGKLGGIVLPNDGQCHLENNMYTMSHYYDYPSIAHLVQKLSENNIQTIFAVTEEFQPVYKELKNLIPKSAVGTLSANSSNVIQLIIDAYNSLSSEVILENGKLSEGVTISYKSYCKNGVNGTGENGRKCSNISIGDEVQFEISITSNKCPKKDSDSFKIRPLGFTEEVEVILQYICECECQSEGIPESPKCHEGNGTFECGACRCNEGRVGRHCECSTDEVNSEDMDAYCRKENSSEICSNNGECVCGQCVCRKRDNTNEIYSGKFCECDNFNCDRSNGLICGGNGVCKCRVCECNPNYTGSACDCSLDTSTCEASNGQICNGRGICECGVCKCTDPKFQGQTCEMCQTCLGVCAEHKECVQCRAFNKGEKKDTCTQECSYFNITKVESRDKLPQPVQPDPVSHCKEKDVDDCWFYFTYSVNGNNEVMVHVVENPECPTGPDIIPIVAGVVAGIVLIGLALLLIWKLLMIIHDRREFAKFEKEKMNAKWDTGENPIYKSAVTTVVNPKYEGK

| IC50 [1, 14] [µM] | SMILES | other results |
| --- | --- | --- |
| 32.8 | C/C=C1/[C@H](O)C[C@H]2[C@@H]3CCC4C[C@H](NCC)CC[C@]4(C)[C@H]3CC[C@]12C (stereo partly specified) |  |
|  | C/C=C1/[C@H](O)C[C@H]2[C@@H]3CCC4C[C@@H](N)CC[C@]4(C)[C@H]3CC[C@]12C (stereo partly specified) | IC50 ([1]; mda-mb-231): Nd(Toxic) |
| 2.48 | C/C=C1/CC[C@H]2[C@@H]3CCC4C[C@H](N5CCCCC5)CC[C@]4(C)[C@H]3CC[C@]12C (stereo partly specified) |  |
| 2.14 | C/C=C1/C(=O)C[C@H]2[C@@H]3CCC4C[C@@H](N(C)C)CC[C@]4(C)[C@H]3CC[C@]12C (stereo partly specified) |  |
| 2.34 | C/C=C1/C(=O)C[C@H]2[C@@H]3CCC4C[C@H](NCc5ccc(C#N)cc5)CC[C@]4(C)[C@H]3CC[C@]12C (stereo partly specified) |  |
| 1.21 | CC=C1CC[C@H]2[C@@H]3CCC4C[C@@H](NC)CC[C@]4(C)[C@H]3CC[C@]12C (stereo partly specified) |  |
|  | C[C@@H]1CC[C@@]2(NC1)O[C@H]1C[C@H]3[C@@H]4CC=C5C[C@@H](O[C@@H]6O[C@H](CO)[C@@H](O[C@@H]7O[C@@H](C)[C@H](O)[C@@H](O)[C@H]7O)[C@H](O)[C@H]6O[C@@H]6O[C@@H](C)[C@H](O)[C@@H](O)[C@H]6O)CC[C@]5(C)[C@H]4CC[C@]3(C)[C@H]1[C@@H]2C [SOLAMARGINE] | Activity [2]: 40%; Activity [3]: 40% |
| 7.45 | C/C=C1/CC[C@H]2[C@@H]3CCC4C[C@H](N(C)C)CC[C@]4(C)[C@H]3CC[C@]12C (stereo partly specified) |  |
| 0.38 | O=c1cc(N2CCOCC2)oc2c(-c3ccccc3)cccc12 [LY-294002] |  |
| 4.36 | C/C=C1/CC[C@H]2[C@@H]3CCC4C[C@@H](N5CCCC5)CC[C@]4(C)[C@H]3CC[C@]12C (stereo partly specified) |  |
| 1.08 | C/C=C1/[C@H](O)C[C@H]2[C@@H]3CCC4C[C@H](N)CC[C@]4(C)[C@H]3CC[C@]12C (stereo partly specified) |  |
|  | C/C=C1/C(=O)C[C@H]2[C@@H]3CCC4C[C@H](NCC)CC[C@]4(C)[C@H]3CC[C@]12C (stereo partly specified) | IC50 ([1]; mda-mb-231): Nd(Toxic) |
| 0.26 | C/C=C1/[C@H](O)C[C@H]2[C@@H]3CCC4C[C@H](N5CCCC5)CC[C@]4(C)[C@H]3CC[C@]12C (stereo partly specified) |  |
| 26.7 | C/C=C1/CC[C@H]2[C@@H]3CCC4C[C@@H](NCc5ccc(C#N)cc5)CC[C@]4(C)[C@H]3CC[C@]12C (stereo partly specified) |  |
| 4.77 | C/C=C1/[C@H](O)C[C@H]2[C@@H]3CCC4C[C@@H](NC)CC[C@]4(C)[C@H]3CC[C@]12C (stereo partly specified) |  |
| 28.5 | C/C=C1/C(=O)C[C@H]2[C@@H]3CCC4C[C@@H](NCC)CC[C@]4(C)[C@H]3CC[C@]12C (stereo partly specified) |  |
|  | C/C=C1/[C@H](O)C[C@H]2[C@@H]3CCC4C[C@@H](N5CCCC5)CC[C@]4(C)[C@H]3CC[C@]12C (stereo partly specified) | IC50 ([1]; mda-mb-231): Nd(Toxic) |
| 15.9 | C/C=C1/[C@H](O)C[C@H]2[C@@H]3CCC4C[C@@H](NCc5ccc(C#N)cc5)CC[C@]4(C)[C@H]3CC[C@]12C (stereo partly specified) |  |
| 21.4 | C/C=C1/[C@H](O)C[C@H]2[C@@H]3CCC4C[C@@H](N5CCCCC5)CC[C@]4(C)[C@H]3CC[C@]12C (stereo partly specified) |  |
|  | FC(F)c1nc2ccccc2n1-c1nc(N2CCOCC2)nc(N2CCOCC2)n1 | Activity (MDA-MB-231 [4]): Active |
|  | C/C=C1/[C@H](O)C[C@H]2[C@@H]3CCC4C[C@@H](N(C)C)CC[C@]4(C)[C@H]3CC[C@]12C (stereo partly specified) | IC50 ([1]; mda-mb-231): Nd(Toxic) |

| IC50 [1, 14] [µM] | SMILES | other results |
| --- | --- | --- |
| 0.24 | C/C=C1/CC[C@H]2[C@@H]3CCC4C[C@@H](NC(=O)c5ccc(C#N)cc5)CC[C@]4(C)[C@H]3CC[C@]12C (stereo partly specified) |  |
| 0.84 | C/C=C1/C(=O)C[C@H]2[C@@H]3CCC4C[C@@H](NCc5ccc(C#N)cc5)CC[C@]4(C)[C@H]3CC[C@]12C (stereo partly specified) |  |
| > 50 | C/C=C1/C(=O)C[C@H]2[C@@H]3CCC4C[C@H](N5CCCC5)CC[C@]4(C)[C@H]3CC[C@]12C (stereo partly specified) |  |
| 5.51 | C/C=C1/CC[C@H]2[C@@H]3CCC4C[C@@H](N(C)C)CC[C@]4(C)[C@H]3CC[C@]12C (stereo partly specified) |  |
| 0.03 | C/C=C1/C(=O)C[C@H]2[C@@H]3CCC4C[C@H](N5CCCCC5)CC[C@]4(C)[C@H]3CC[C@]12C (stereo partly specified) | Activity (MDA-MB-231 [5]): Active; Activity [6]: Non-Toxic; Activity (MDA-MB-231 [7]): Dose-dependent effect; inhibition (MDA-MB-231 [8]): Dose-dependent effect; inhibition (MDA-MB-231 [9]): Dose-dependent effect; Activity [10]: Non-Toxic; inhibition (MDA-MB-231 [11]): Dose-dependent effect; Activity (MDA-MB-231 [12]): Dose-dependent effect; inhibition [13]: Dose-dependent effect |
|  | C/C=C1/[C@H](O)C[C@H]2[C@@H]3CCC4C[C@H](NCc5ccc(C#N)cc5)CC[C@]4(C)[C@H]3CC[C@]12C (stereo partly specified) | IC50 ([1]; mda-mb-231): Nd(Toxic) |
| 0.48 | C/C=C1/C(=O)C[C@H]2[C@@H]3CCC4C[C@@H](N)CC[C@]4(C)[C@H]3CC[C@]12C (stereo partly specified) |  |
| 24.2 | C/C=C1/CC[C@H]2[C@@H]3CCC4C[C@H](N5CCCC5)CC[C@]4(C)[C@H]3CC[C@]12C (stereo partly specified) |  |
| > 50 | C/C=C1/CC[C@H]2[C@@H]3CCC4C[C@H](NCc5ccc(C#N)cc5)CC[C@]4(C)[C@H]3CC[C@]12C (stereo partly specified) |  |
|  | C/C=C1/[C@H](O)C[C@H]2[C@@H]3CCC4C[C@@H](NCC)CC[C@]4(C)[C@H]3CC[C@]12C (stereo partly specified) | IC50 ([1]; mda-mb-231): Nd(Toxic) |
| 7.37 | C/C=C1/C(=O)C[C@H]2[C@@H]3CCC4C[C@H](N(C)C)CC[C@]4(C)[C@H]3CC[C@]12C (stereo partly specified) |  |
|  | C/C=C1/C(=O)C[C@H]2[C@@H]3CCC4C[C@@H](N5CCCC5)CC[C@]4(C)[C@H]3CC[C@]12C (stereo partly specified) | IC50 ([1]; mda-mb-231): Nd(Toxic) |
| 18.9 | C/C=C1/C(=O)C[C@H]2[C@@H]3CCC4C[C@@H](NC)CC[C@]4(C)[C@H]3CC[C@]12C (stereo partly specified) |  |
|  | C/C=C1/[C@H](O)C[C@H]2[C@@H]3CCC4C[C@H](NC)CC[C@]4(C)[C@H]3CC[C@]12C (stereo partly specified) | IC50 ([1]; mda-mb-231): Nd(Toxic) |
| 0.85 | C/C=C1/[C@H](O)C[C@H]2[C@@H]3CCC4C[C@H](N5CCCCC5)CC[C@]4(C)[C@H]3CC[C@]12C (stereo partly specified) |  |
| > 50 | CC=C1CC[C@H]2[C@@H]3CCC4C[C@H](NC)CC[C@]4(C)[C@H]3CC[C@]12C (stereo partly specified) |  |
| > 50 | C/C=C1/[C@H](O)C[C@H]2[C@@H]3CCC4C[C@H](N(C)C)CC[C@]4(C)[C@H]3CC[C@]12C (stereo partly specified) |  |
| > 50 | C/C=C1/C(=O)C[C@H]2[C@@H]3CCC4C[C@@H](N5CCCCC5)CC[C@]4(C)[C@H]3CC[C@]12C (stereo partly specified) |  |
| 0.3 | C/C=C1/C(=O)C[C@H]2[C@@H]3CCC4C[C@H](N)CC[C@]4(C)[C@H]3CC[C@]12C (stereo partly specified) |  |
| > 50 | C/C=C1/CC[C@H]2[C@@H]3CCC4C[C@@H](N5CCCCC5)CC[C@]4(C)[C@H]3CC[C@]12C (stereo partly specified) |  |
|  | C/C=C1/C(=O)C[C@H]2[C@@H]3CCC4C[C@H](NC)CC[C@]4(C)[C@H]3CC[C@]12C (stereo partly specified) | IC50 ([1]; mda-mb-231): Nd(Toxic) |

| SMILES | IC50 [1, 14] [µM] | other results |
| --- | --- | --- |
| C/C=C1/CC[C@H]2[C@@H]3CCC4C[C@H](N)CC[C@]4(C)[C@H]3CC[C@]12C (stereo partly specified) | 2.21 |  |
| C/C=C1/CC[C@H]2[C@@H]3CCC4C[C@@H](N)CC[C@]4(C)[C@H]3CC[C@]12C (stereo partly specified) | 0.09 |  |
| C/C=C1/CC[C@H]2[C@@H]3CCC4C[C@@H](NCC)CC[C@]4(C)[C@H]3CC[C@]12C (stereo partly specified) | 0.17 |  |
| C/C=C1/CC[C@H]2[C@@H]3CCC4C[C@H](NCC)CC[C@]4(C)[C@H]3CC[C@]12C (stereo partly specified) | 20.2 |  |
